IC50 and inhibition data for 21 molecules are collected here from patent US20240083857A1, “2-Methyl-Quinazolines” (Bayer Pharma Aktiengesellschaft, priority 2017, published 2024).

The target in assay [1] is human SOS1 (nucleotide exchange of K-Ras^G12C) (Homo sapiens, UniProt Q07889). The assay can be described thus: Biochemical assay 2: K-Ras^G12C activation assay by hSOS1 at high GTP concentration (HTRF). The settings on record: for inhibition at 20 µM: read-out: Assay 2 (KRAS-Activation by SOS high GTP) activity expressed as % inhibition at 20 μM.
The target in assay [2] is human SOS1 (loading of human K-Ras^G12C-GDP with fluorescent GTP-analog) (Homo sapiens, UniProt Q07889). Put plainly: Biochemical assay 3: K-Ras^G12C activation assay by hSOS1 (HTRF). The settings on record: for inhibition at 20 µM: read-out: Assay 3 (KRAS-Activation by SOS no GTP) activity expressed as % inhibition at 20 μM. On the technique in general: Time-resolved FRET reads energy transfer from a long-lived donor to a nearby acceptor.

Assay [3] concerns the target Epidermal Growth Factor Receptor (EGFR) (Homo sapiens (Human), UniProt P00533). Put plainly: EGFR kinase assay (TR-FRET). The class given is biochemical. The text has this:
EGFR inhibitory activity of compounds of the present invention was quantified employing the TR-FRET based EGFR assay as described in the following paragraphs.
Epidermal Growth Factor Receptor (EGFR) affinity purified from human carcinoma A431 cells (Sigma-Aldrich, #E3641) was used as kinase. As substrate for the kinase reaction the biotinylated peptide biotin-Ahx-[…] (SEQ ID NO 5) (C-terminus in amid form) was used which can be purchased e.g. form the company Biosyntan GmbH (Berlin-Buch, Germany).
For the assay 50 nL of a 100 fold concentrated solution of the test compound in DMSO was pipetted into a black low volume 384 well microtiter plate (Greiner Bio-One, Frickenhausen, Germany), 2 μL of a solution of EGFR in aqueous assay buffer [50 mM Hepes/HCl pH 7.0, 1 mM MgCl2, 5 mM MnCl2, 0.5 mM activated sodium ortho-vanadate, 0.005% (v/v) Tween-20]were added and the mixture was incubated for 15 min at 22° C. to allow pre-binding of the test compounds to the enzyme before the start of the kinase reaction. […] The concentration of EGFR was adjusted depending of the activity of the enzyme lot and was chosen appropriate to have the assay in the linear range, typical concentration were about 3 U/ml. The reaction was stopped by the addition of 5 μl of a solution of HTRF detection reagents (0.1 μM streptavidine-XL665 [Cis Biointernational] and 1 nM PT66-Tb-Cryptate, an terbium-cryptate labelled anti-phospho-tyrosine antibody from Cis Biointernational [instead of the PT66-Tb-cryptate PT66-Eu-Chelate from Perkin Elmer can also be used]) in an aqueous EDTA-solution (80 mM EDTA, 0.2% (w/v) bovine serum albumin in 50 mM HEPES pH 7.5).
The resulting mixture was incubated 1 h at 22° C. to allow the binding of the biotinylated phosphorylated peptide to the streptavidine-XL665 and the PT66-Eu-Chelate. Subsequently the amount of phosphorylated substrate was evaluated by measurement of the resonance energy transfer from the PT66-Tb-Cryptate to the streptavidine-XL665. Therefore, the fluorescence emissions at 620 nm and 665 nm after excitation at 337 nm were measured in a HTRF reader, e.g. a Pherastar (BMG Labtechnologies, Offenburg, Germany) or a Viewlux (Perkin-Elmer). The ratio of the emissions at 665 nm and at […] was taken as the measure for the amount of phosphorylated substrate.

The target of assay [4] is K-Ras^G12C : hSOS1 interaction (Homo sapiens, UniProt Q07889). The assay can be described thus: Biochemical assay 1: K-Ras^G12C interaction assay with hSOS1 (HTRF). The class given is binding. The settings on record: for inhibition at 20 µM: read-out: Assay 1 (KRAS-SOS Interaction) activity expressed as % inhibition at 20 μM; for IC50: read-out: Assay 1 (KRAS-SOS Interaction) activity expressed as IC50.

Where [5] appears, read: E-notation values, unit inferred, 50 μM GTP, read-out: Assay 2 (KRAS-Activation, high GTP) IC50.
The mark [6] stands for this setting: E-notation values, unit inferred, read-out: Assay 3 (KRAS-Activation) IC50.
Where [7] appears, read: E-notation values, unit inferred, read-out: EGFR-assay IC50.
[8] abbreviates: in μM, read-out: EGFR-assay IC50.
The mark [9] stands for this setting: values given in μM, read-out: EGFR kinase inhibition IC50.
Where [10] appears, read: high GTP, read-out: Assay 2 (KRAS-Activation by SOS high GTP) activity expressed as IC50.
Where [11] appears, read: no GTP, read-out: Assay 3 (KRAS-Activation by SOS no GTP) activity expressed as IC50.

Like-named read-outs stand apart in the source and are kept apart here.

Epidermal Growth Factor Receptor (EGFR), sequence (P00533 25-1210): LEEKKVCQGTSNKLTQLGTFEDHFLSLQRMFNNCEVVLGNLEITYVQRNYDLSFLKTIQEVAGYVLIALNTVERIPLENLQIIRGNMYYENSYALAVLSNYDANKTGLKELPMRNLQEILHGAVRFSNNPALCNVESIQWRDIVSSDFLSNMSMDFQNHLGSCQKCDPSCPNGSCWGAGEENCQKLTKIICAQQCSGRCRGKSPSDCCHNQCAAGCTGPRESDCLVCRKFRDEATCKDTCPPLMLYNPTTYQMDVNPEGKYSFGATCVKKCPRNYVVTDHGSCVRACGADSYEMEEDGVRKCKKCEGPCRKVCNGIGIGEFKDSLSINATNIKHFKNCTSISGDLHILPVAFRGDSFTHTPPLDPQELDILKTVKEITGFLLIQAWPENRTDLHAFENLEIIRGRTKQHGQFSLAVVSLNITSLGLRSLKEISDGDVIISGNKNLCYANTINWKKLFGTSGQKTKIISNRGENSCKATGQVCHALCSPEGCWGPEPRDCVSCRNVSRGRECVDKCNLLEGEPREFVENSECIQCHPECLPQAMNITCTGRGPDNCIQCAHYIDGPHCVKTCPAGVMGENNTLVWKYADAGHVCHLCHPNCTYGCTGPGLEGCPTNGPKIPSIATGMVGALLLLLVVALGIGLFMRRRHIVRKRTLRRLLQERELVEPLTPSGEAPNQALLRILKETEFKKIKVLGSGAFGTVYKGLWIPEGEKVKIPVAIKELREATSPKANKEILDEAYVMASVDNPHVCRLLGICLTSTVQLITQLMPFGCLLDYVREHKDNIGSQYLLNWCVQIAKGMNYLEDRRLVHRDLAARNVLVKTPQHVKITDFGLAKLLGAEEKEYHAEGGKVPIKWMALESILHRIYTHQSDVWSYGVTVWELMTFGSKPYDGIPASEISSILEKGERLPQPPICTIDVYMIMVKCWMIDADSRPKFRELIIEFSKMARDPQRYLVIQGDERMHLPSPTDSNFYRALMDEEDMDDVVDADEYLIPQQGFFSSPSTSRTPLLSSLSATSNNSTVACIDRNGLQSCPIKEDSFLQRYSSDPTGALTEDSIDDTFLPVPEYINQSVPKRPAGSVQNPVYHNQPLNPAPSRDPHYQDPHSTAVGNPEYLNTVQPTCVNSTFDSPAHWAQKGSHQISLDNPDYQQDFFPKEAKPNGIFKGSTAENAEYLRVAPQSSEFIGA

For orientation: IC50 means the midpoint of a concentration-inhibition curve. In the case of `COc1cc2nc(C)nc(N[C@H](C)c3cccc(-c4cn[nH]c4)c3)c2cc1OCCS(C)(=O)=O` [Example 448, 7-methoxy-2-methyl-6-[2-(methylsulfonyl)ethoxy]-N-{(1R)-1-[3-(1H-pyrazol-4-yl)phenyl]ethyl}quinazolin-4-amine], the IC50 was > 20000 nM in assay [1] (setting [5]), > 20000 nM in assay [2] (setting [6]) and > 20 µM in assay [3] (setting [7]).

Consider `COc1cc2nc(C)nc(NC(C)c3ccc(-c4ccccc4-c4nnn[nH]4)s3)c2cc1OC` (centres unmarked) [Example 368, 6,7-dimethoxy-2-methyl-N-[1-{5-[2-(1H-tetrazol-5-yl)phenyl]thiophen-2-yl}ethyl]-quinazolin-4-amine], for which, in assay [3] (setting [8]), the IC50 is > 20 µM.

For `COc1cc2nc(C)nc(NC(C)c3ccc(-c4ccc(CNC(=O)OC(C)(C)C)s4)s3)c2cc1OC` (centres unmarked) [Example 447, tert-butyl [(5′-{1-[(6,7-dimethoxy-2-methylquinazolin-4-yl)amino]ethyl}-2,2′-bithiophen-5-yl)methyl]carbamate], the values for the IC50 in assay [1] (setting [5]), in assay [2] (setting [6]) and in assay [3] (setting [7]) were > 20000 nM, > 20000 nM and > 20 µM, respectively.

For the molecule `CNCc1ccccc1-c1csc(C(C)Nc2nc(C)nc3cc(OC)c(OC)cc23)c1` (single isomer, unassigned; enantiomer 2) [Example 327, 6,7-dimethoxy-2-methyl-N-[1-(4-{2-[(methylamino)methyl]phenyl}thiophen-2-yl)ethyl]quinazolin-4-amine, Enantiomer 2], in assay [3] (setting [9]), the IC50 is > 20 µM.

As for `COc1cc2nc(C)nc(N[C@H](C)c3cccc(-c4c[nH]cn4)c3)c2cc1OC` [Example 342, N-{(1R)-1-[3-(1H-imidazol-4-yl)phenyl]ethyl}-6,7-dimethoxy-2-methylquinazolin-4-amine], the values for the IC50 in assay [1] (setting [10]), in assay [2] (setting [11]) and in assay [3] (setting [9]) were 993 nM, 1130 nM and > 20 µM, respectively.

With `CNCc1ccccc1-c1csc(C(C)Nc2nc(C)nc3cc(OC)c(OC)cc23)c1` (single isomer, unassigned; enantiomer 1) [Example 326, 6,7-dimethoxy-2-methyl-N-[1-(4-{2-[(methylamino)methyl]phenyl}thiophen-2-yl)ethyl]quinazolin-4-amine, Enantiomer 1], the IC50 in assay [3] (setting [9]) was > 20 µM.

Consider `COc1cc2nc(C)nc(NC(C)c3nc(C)cs3)c2cc1OC` (centres unmarked) [Example 445, 6,7-dimethoxy-2-methyl-N-[1-(4-methyl-1,3-thiazol-2-yl)ethyl]quinazolin-4-amine], for which the IC50 in assay [1] (setting [5]) is > 20000 nM; in assay [2] (setting [6]) it was > 20000 nM; in assay [3] (setting [7]), > 20 µM.

Consider `COc1cc2nc(C)nc(NC(C)c3ccc(-c4ccccc4C(O)CCc4ccccc4)s3)c2cc1OC` (centres unmarked) [Example 375, 1-[2-(5-{1-[(6,7-dimethoxy-2-methylquinazolin-4-yl)amino]ethyl}thiophen-2-yl)phenyl]-3-phenylpropan-1-ol], for which the half-maximal inhibitory concentration (IC50) in assay [3] (setting [8]) is > 20 µM.

Turning to `COc1cc2nc(C)nc(N[C@H](C)c3cccc4ccccc34)c2cc1OC` [Example 1, 6,7-dimethoxy-2-methyl-N-[(1R)-1-(naphthalen-1-yl)ethyl]quinazolin-4-amine], in assay [3] (setting [9]), the IC50 was > 20 µM.

Take `CNCc1ccccc1-c1csc(C(C)Nc2nc(C)nc3cc(OC)c(OC)cc23)c1` (centres unmarked) [Example 271, 6,7-dimethoxy-2-methyl-N-[1-(4-{2-[(methylamino)methyl]phenyl}thiophen-2-yl)ethyl]quinazolin-4-amine]: in assay [3] (setting [9]), the IC50 is > 20 µM.

In general, inhibition refers to the relative decrease from the control value, in per cent. On to `COc1cc2nc(C)nc(N[C@@H](C)c3ccc(/C=C/C4CCCCC4)s3)c2cc1OC` (racemic) [Example 157, N-[1-{5-[(E)-2-cyclohexylethenyl]thiophen-2-yl}ethyl]-6,7-dimethoxy-2-methylquinazolin-4-amine], for which the inhibition at 20 µM turned out to be 44% in assay [4], 19% in assay [1] (high GTP) and 12% in assay [2] (no GTP).

In the case of `COc1cc2nc(C)nc(N[C@@H](C)c3ccc(-c4cccc(OCC5CC5)c4)s3)c2cc1OC` (stereo in doubt) [Example 170, N-[1-{5-[3-(cyclopropylmethoxy)phenyl]thiophen-2-yl}ethyl]-6,7-dimethoxy-2-methylquinazolin-4-amine], the values for the inhibition at 20 µM in assay [4], in assay [1] (high GTP) and in assay [2] (no GTP) were 45%, 7% and 15%, respectively.

In the case of `COc1cc2nc(C)nc(N[C@@H](C)c3ccc(-c4ccccc4Oc4ccccc4)s3)c2cc1OC` (stereo in doubt) [Example 158, 6,7-dimethoxy-2-methyl-N-{1-[5-(2-phenoxyphenyl)thiophen-2-yl]ethyl}quinazolin-4-amine], the results for the inhibition at 20 µM in assay [4], in assay [1] (high GTP) and in assay [2] (no GTP) were 29%, 4% and 10%, respectively.

Consider `CNC(=O)CNCc1ccccc1-c1ccc(C(C)Nc2nc(C)nc3cc(OC)c(OC)cc23)s1` (centres unmarked) [Example 282, 2-[2-(5-{1-[(6,7-dimethoxy-2-methylquinazolin-4-yl)amino]ethyl}thiophen-2-yl)benzyl]-N-methylglycinamide], for which the 50% inhibitory concentration (IC50) in assay [4] came out at 257 nM; in assay [1] (setting [10]), 265 nM; in assay [2] (setting [11]) it was 212 nM.

For `COc1cc2ncnc(N[C@H](C)c3cccc4ccccc34)c2cc1OC` [Reference compound, 6,7-dimethoxy-N-[(1R)-1-(1-naphthyl)ethyl]quinazolin-4-amine, reference compound], the IC50 in assay [3] (unit inferred, read-out: EGFR kinase inhibition IC50) came out at 0.553 µM.

Take `CCCOc1ccccc1-c1ccc([C@H](C)Nc2nc(C)nc3cc(OC)c(OC)cc23)s1` (stereo in doubt) [Example 47, 6,7-dimethoxy-2-methyl-N-{1-[5-(2-propoxyphenyl)thiophen-2-yl]ethyl}quinazolin-4-amine]: the inhibition at 20 µM worked out at 40% in assay [4], 22% in assay [1] (high GTP) and 17% in assay [2] (no GTP).

Regarding `COc1cc2nc(C)nc(N[C@@H](C)c3ccc(-c4ccccc4S(C)(=O)=O)s3)c2cc1OC` (racemic) [Example 148, 6,7-dimethoxy-2-methyl-N-[1-{5-[2-(methylsulfonyl)phenyl]thiophen-2-yl}ethyl]quinazolin-4-amine], the IC50 in assay [4] was 1410 nM; in assay [1] (setting [10]) it was 3400 nM; in assay [2] (setting [11]), 3060 nM.

Consider `COc1cc2nc(C)nc(N[C@H](C)c3cccc(-c4ccc5c(c4)OCO5)c3)c2cc1OC` [Example 96, N-{(1R)-1-[3-(1,3-benzodioxol-5-yl)phenyl]ethyl}-6,7-dimethoxy-2-methylquinazolin-4-amine], for which the IC50 came out at 1040 nM in assay [4], 1090 nM in assay [1] (setting [10]) and 1390 nM in assay [2] (setting [11]).

In the case of `Cc1nc(N[C@H](C)c2cccc(Cl)c2)c2cc(C(=O)O)ccc2n1` [Example 372, 4-{[(1R)-1-(3-chlorophenyl)ethyl]amino}-2-methylquinazoline-6-carboxylic acid], the IC50 in assay [3] (setting [8]) was > 20 µM.

For the molecule `COc1ncc(-c2cccc([C@@H](C)Nc3nc(C)nc4cc(OC)c(OC)cc34)c2)cn1` [Example 111, 6,7-dimethoxy-N-{(1R)-1-[3-(2-methoxypyrimidin-5-yl)phenyl]ethyl}-2-methylquinazolin-4-amine], the IC50 was found to be 2100 nM in assay [4], 1670 nM in assay [1] (setting [10]) and 3340 nM in assay [2] (setting [11]).

Take `COc1cc2nc(C)nc(N[C@H](C)c3cccc(-c4cccc(S(C)(=O)=O)c4)c3)c2cc1OC` [Example 112, 6,7-dimethoxy-2-methyl-N-{(1R)-1-[3′-(methylsulfonyl)biphenyl-3-yl]ethyl}quinazolin-4-amine]: the IC50 in assay [4] was found to be 696 nM; in assay [1] (setting [10]) it was 948 nM; in assay [2] (setting [11]) it was 1120 nM.
